Experimental data reported in US20140088006A1, “Stem Cell Mobilization and Tissue Repair and Regeneration” (Wellstat Therapeutics Corporation, priority 2011, published 2014).
Values joined by “and” are separate entries in the source; they are usually repeats but may differ in a detail not shown here. Equal values may be shown once. “Also recorded” adds a separate entry of the source. No end group written: not given here.

Columns and labels:
[1] = tested on: full-thickness cutaneous wounds; assay: Excisional wound healing model in db/db mice; format: in vivo; set-up: Wound area measurements, Day 14: unit not given here; conditions: for Wound healing rate: individual mice; for Wound healing rate / Wound area measurements, Day 14 / Wound area, Percent of original size: 5 mg/kg; for Wound area measurements, Day 14 / Wound area, Percent of original size: individual wounds
Description: The average time to wound closure between db/db mice and non-diabetic C57BL6 mice was compared in a pilot experiment. Paired 6-mm full-thickness cutaneous wounds were made on the dorsa of mice after depilation with a sterile Miltex biopsy punch (VWR #21909-144). To prevent wound contraction during the healing process, 0.5 g/mL polyisobutyl methacrylate (Sigma #445754) in toluene (Sigma #244511) was applied over wounds 24 hours after wounding. After methacrylate hardened, a transparent dressing (Tagaderm, Lab Safety Supply #53379) was placed over wounds. Two groups of mice (5 mice per group) received intravenous injections of either Vehicle or Compound X (5 mg/kg) starting on day one post wounding and continuing daily for four consecutive days at Zeitgeber time 4 (ZT4), 4 hr after onset of light to time mobilization of stem cells with circadian oscillations (Frenette et. al. 2008).
Digital photographs of the wounds were taken on days 0, 7, 10 and 14. Wound areas were measured by manually tracing the border of unhealed area and quantified as a percent area of the original wound size. The size of the traced area was calculated automatically using the Image J (NIH) analysis program. The following calculation was used to determine the wound healing rate: (Area of original wound−Area of remaining wound)÷Area of original wound×100. […]
In the next experiment, 2 groups of db/db mice (6 mice per group) received paired 6-mm full-thickness cutaneous wounds. Mice then received intravenous injections of either Vehicle or Compound X (5 mg/kg) starting on day one post wounding and continuing daily for four consecutive days at ZT4. Wounds were monitored until complete closure in control group on day 21. To limit wound contraction during the healing process, a donut shaped silicone splint was centered on the wound and glued (cyanoacrylate adhesive) to the skin.
Ten mice were treated per group with 3 mice from each group being sacrificed for histology at day 10 post-wounding. Wound closure in the Compound X treated group was mostly achieved by the 14th day, while control wounds were closed between days 18-21 post-wounding. […] This was similar to data generated in previous experiments.

[2] = tested on: human umbilical cord blood CD34+ cells; assay: Transwell migration of CD34+ cells toward SDF-1α; format: cell-based
Description: CD34^+ cell migration toward 100 ng/mL SDF-1α in a Corning Transwell device (24 well format, 5 μm pore size, polycarbonate membrane) was studied with and without Compound X and in the presence or absence of either anti-CXCR4 antibody or the CXCR4 antagonist AMD3100.
The CD34^+ population of cells from human umbilical cord blood was obtained from Lonza, defrosted and expanded ex vivo with cytokine cocktail for 6 days according to standard procedures. Briefly, 10 wells of two 12 well dishes were seeded at a density of 8×10^4 cells per well in 2 mL of CellGenix serum free growth medium (SCGM). Cells were allowed to expand in a 37° C. incubator (5% CO2, 86% RH) for 6 days. During the expansion, the 10 wells of one of the two plates received treatments of Compound X to a final concentration of 5 ng/mL (10 μL from freshly prepared 1 μg/mL stock in SCGM) at 24 hours and 72 hours after initiation of the culture.
3 hours prior to the start of the migration assay, both control and Compound X expanded cells were pulsed with either 0, 5 ng/mL or 5 μg/mL Compound X. Migration assay was performed according to the method described (Tavor et al. 2005). Cells were centrifuged for 5 minutes at 1100 RPM and resuspended at a density of 2×10^6 cells/mL in CellGenix SCGM serum free medium containing 1% Fraction V BSA either in the presence or absence of 5 ng/mL or 5 μg/mL Compound X for 3 hours. The feeder tray (bottom) was prepared with 600 μL of serum free SCGM supplemented with 1% BSA in the presence or absence of SDF-1α. All treatments were conducted in triplicate. The wells of the migration chamber (top) received 100 μL of cells from the 2×10^6 cells/mL suspensions, preincubated with 5 ng/mL or 5 μg/mL Compound X or Control. All treatments were conducted in triplicates. The plates were placed in a 37° C. incubator (5% CO2, 86% RH) and cells were allowed to migrate for 4 hours. […]
The cells were thawed at room temperature. […] 150 μL of the resulting cell lysates were transferred to a new 96 well plate and the fluorescence was read on a […] SpectraMax M2 fluorimeter (ex 485, em 538). […]

[3] = i.v. 5 mg/kg daily for 4 days, Day 7
[4] = i.v. 5 mg/kg daily for 4 days, Day 10
[5] = second experiment, i.v. 5 mg/kg daily for 4 days, 14 days post-wounding

FPHFDLSHGSAQV [Compound X, tridecapeptide that acts on stem cells]
Wound healing rate, Average [1, 3]: 14.22%
Wound healing rate [1, 3]: 5.14% and 6.40% and 7.85% and 8.83% and 42.89%
Wound healing rate, Average [1, 4]: 38.68%
Wound healing rate [1, 4]: 17.47% and 13.96% and 65.36% and 17.51% and 79.10%
wound closure ([1]; i.v. 5 mg/kg daily for 4 days, ten days after wounding): 39%
Wound area measurements, Day 14 ([1]; second experiment (6 mice per group, silicone splint), i.v. 5 mg/kg daily for 4 days): 5865 and 19152 and 50090 and 21199 and 49486 and 3603 and 24952 and 59032 and 74676 and 52782 and 11094 and 58870
Wound area, Percent of original size, Average [1, 5]: 8.05%
Wound area, Percent of original size [1, 5]: 1.11% and 5.19% and 10.08% and 7.02% and 10.48% and 0.82% and 4.45% and 12.48% and 14.28% and 13.38% and 2.48% and 14.93%
Wound area measurements, Day 14 ([1]; third experiment (ten mice per group), i.v. 5 mg/kg): 4104 and 24930 and 972 and 100098 and 7440 and 2808 and 324 and 78 and 180 and 21924 and 53715 and 22554 and 20406 and 168663
wounds closed by day 14 (95%-100% closure) ([1]; third experiment, i.v. 5 mg/kg): 11 of 14
Wound area, Percent of original size ([1]; third experiment, i.v. 5 mg/kg, 14 days post-wounding): 0.83% and 5.59% and 0.19% and 18.81% and 1.56% and 0.61% and 0.06% and 0.02% and 0.03% and 4.11% and 10.3% and 5.11% and 5.24% and 29.82%
time to wound closure ([1]; third experiment, i.v. 5 mg/kg, control closed between days 18-21): ≤ 14 days
interference with the effect of AMD3100 or anti CXCR4 antibody on migration ([2]; 5 ng/mL Compound X): did not interfere
CD34+ cell Transwell migration toward SDF-1α ([2]; cells expanded with 5 ng/mL and/or pulsed 3 hours with Compound X, 100 ng/mL SDF-1α, 4 hours): no significant difference; also recorded: had no effect
